Experiments:
NKL (IL-2 2.5 ng/mL) [1] = test: drug sensitivity score (DSS) (DSS units); higher = more sensitive; extreme values may be limits of the assay; conditions: 72 h
[2] = system: normal primary NK cells, pool 2 (3 donors) (IL-2 2.5 ng/mL); test: as above; conditions: 72 h
NK-92 (IL-2 2.5 ng/mL) [3] = test: as above; conditions: 72 h
DERL-7 (IL-2 2.5 ng/mL) [4] = test: as above; conditions: 72 h
[5] = system: normal primary NK cells, pool 1 (3 donors), resting (IL-2 0 ng/mL); test: as above; conditions: 72 h
[6] = system: normal primary NK cells, pool 1 (3 donors) (IL-2 2.5 ng/mL); test: as above; conditions: 72 h
YT (IL-2 2.5 ng/mL) [7] = test: as above; conditions: 72 h
NK-YS (IL-2 2.5 ng/mL) [8] = test: as above; conditions: 72 h
SNK-6 (IL-2 2.5 ng/mL) [9] = test: as above; conditions: 72 h
IMC-1 (IL-2 20 ng/mL) [10] = test: as above; conditions: 72 h
KAI3 (IL-2 2.5 ng/mL) [11] = test: as above; conditions: 72 h
KHYG-1 (IL-2 2.5 ng/mL) [12] = test: as above; conditions: 72 h
[13] = system: normal primary NK cells, pool 3 (3 donors) (IL-2 2.5 ng/mL); test: as above; conditions: 72 h
[14] = system: normal NK cells expanded with K562-aAPC; test: as above; conditions: 72 h; IL-2 2.5 ng/mL
Procedure: (§1)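 Drug sensitivity and resistance testing on K562-aAPC-expanded normal NK cells: 5 concentrations (10-fold steps over a 10,000-fold range), 72 h at 37 °C, viability by CellTiter-Glo normalised to DMSO and benzethonium chloride controls; DSS from the fitted curve.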

NKL (IL-2 2.5 ng/mL) [15] = test: percent inhibition of viability; higher = more inhibition; conditions: 72 h
[16] = system: normal primary NK cells, pool 2 (3 donors) (IL-2 2.5 ng/mL); test: as above; conditions: 72 h
NK-92 (IL-2 2.5 ng/mL) [17] = test: as above; conditions: 72 h
DERL-7 (IL-2 2.5 ng/mL) [18] = test: as above; conditions: 72 h
[19] = system: normal primary NK cells, pool 1 (3 donors), resting (IL-2 0 ng/mL); test: as above; conditions: 72 h
[20] = system: normal primary NK cells, pool 1 (3 donors) (IL-2 2.5 ng/mL); test: as above; conditions: 72 h
YT (IL-2 2.5 ng/mL) [21] = test: as above; conditions: 72 h
NK-YS (IL-2 2.5 ng/mL) [22] = test: as above; conditions: 72 h
SNK-6 (IL-2 2.5 ng/mL) [23] = test: as above; conditions: 72 h
IMC-1 (IL-2 20 ng/mL) [24] = test: as above; conditions: 72 h
KAI3 (IL-2 2.5 ng/mL) [25] = test: as above; conditions: 72 h
KHYG-1 (IL-2 2.5 ng/mL) [26] = test: as above; conditions: 72 h
[27] = system: normal primary NK cells, pool 3 (3 donors) (IL-2 2.5 ng/mL); test: as above; conditions: 72 h
[28] = system: normal NK cells expanded with K562-aAPC; test: as above; conditions: 72 h, IL-2 2.5 ng/mL
Procedure: as §1

CCCCCOC(=O)Nc1nc(=O)n([C@@H]2O[C@H](C)[C@@H](O)[C@H]2O)cc1F [Capecitabine] (max concentration tested 10000 nM)
Conditions	drug sensitivity score
DERL-7 (IL-2 2.5 ng/mL) [4]	3.42
IMC-1 (IL-2 20 ng/mL) [10]	0
KAI3 (IL-2 2.5 ng/mL) [11]	4.96
KHYG-1 (IL-2 2.5 ng/mL) [12]	0
NK-92 (IL-2 2.5 ng/mL) [3]	0
NK-YS (IL-2 2.5 ng/mL) [8]	1.92
NKL (IL-2 2.5 ng/mL) [1]	0
SNK-6 (IL-2 2.5 ng/mL) [9]	6.62
YT (IL-2 2.5 ng/mL) [7]	2.47
[2]	0
[5]	1.76
[6]	0
[13]	0
[14]	0

percent inhibition of viability [%]
Conditions	1 nM	10 nM	100 nM	1000 nM	10000 nM
DERL-7 (IL-2 2.5 ng/mL) [18]	0.46	4.42	-2.34	4.15	52.2
IMC-1 (IL-2 20 ng/mL) [24]	-3.3	-4.34	-6.24	-6.22	-8.14
KAI3 (IL-2 2.5 ng/mL) [25]	1.53	10.3	11	18.4	51.4
KHYG-1 (IL-2 2.5 ng/mL) [26]	-4.65	-8.98	-2.6	-4.39	-2.75
NK-92 (IL-2 2.5 ng/mL) [17]	-10.2	1.4	2.48	-3.88	10.2
NK-YS (IL-2 2.5 ng/mL) [22]	-5.86	-8.43	-2.42	-0.04	39
NKL (IL-2 2.5 ng/mL) [15]	-14.2	-5.91	-4.8	5.16	-0.14
SNK-6 (IL-2 2.5 ng/mL) [23]	12	11.5	0.05	16.4	72.5
YT (IL-2 2.5 ng/mL) [21]	-3.7	-7.15	-2.55	-0.84	48.6
[16]	-2.47	1.21	-0.29	-0.41	-2.27
[19]	-8.89	-7.83	13.7	10.2	11
[20]	-11.1	-11.6	0.78	-4.13	-5.4
[27]	0.26	5.64	1.92	7.05	2.46
[28]	-1.3	3.24	-1.87	-1.09	-2.22

CO[C@H]1/C=C\C=C(/C)C(=O)NC2=CC(=O)C(NCCN(C)C)=C(C[C@@H](C)C[C@H](OC)[C@H](O)[C@@H](C)/C=C(\C)[C@@H]1OC(N)=O)C2=O [Alvespimycin] (max concentration tested 1000 nM)
Conditions	drug sensitivity score
DERL-7 (IL-2 2.5 ng/mL) [4]	15.1
IMC-1 (IL-2 20 ng/mL) [10]	8.22
KAI3 (IL-2 2.5 ng/mL) [11]	15.7
KHYG-1 (IL-2 2.5 ng/mL) [12]	12.2
NK-92 (IL-2 2.5 ng/mL) [3]	13.3
NK-YS (IL-2 2.5 ng/mL) [8]	19.2
NKL (IL-2 2.5 ng/mL) [1]	16.4
SNK-6 (IL-2 2.5 ng/mL) [9]	19.9
YT (IL-2 2.5 ng/mL) [7]	9.86
[2]	14.8
[5]	7.28
[6]	15.5
[13]	10.3
[14]	13.3

percent inhibition of viability [%]
Conditions	0.1 nM	1 nM	10 nM	100 nM	1000 nM
DERL-7 (IL-2 2.5 ng/mL) [18]	-2.47	-2.74	9.85	73.2	101
IMC-1 (IL-2 20 ng/mL) [24]	-5.23	4.85	1.66	16.1	101
KAI3 (IL-2 2.5 ng/mL) [25]	3.95	3.1	8.75	78.1	104
KHYG-1 (IL-2 2.5 ng/mL) [26]	-3.99	2.16	2.52	55.2	107
NK-92 (IL-2 2.5 ng/mL) [17]	-5.39	0.79	7.9	62.4	105
NK-YS (IL-2 2.5 ng/mL) [22]	-5	5.02	9.34	96.8	105
NKL (IL-2 2.5 ng/mL) [15]	-9.27	5.22	1.11	89.3	90.7
SNK-6 (IL-2 2.5 ng/mL) [23]	11.2	9.82	13.6	97.6	91.2
YT (IL-2 2.5 ng/mL) [21]	-0.99	6.65	4.58	35.5	97
[16]	-14.3	-3.64	14.4	68.9	82.6
[19]	9.61	-5.61	24.6	26.1	42
[20]	9.22	-0.64	16.4	73	87
[27]	-14.3	-9.11	6.58	46.3	85.2
[28]	-6.1	-4.9	-1.57	67.3	100

C/C(=C\c1csc(C)n1)[C@@H]1C[C@@H]2O[C@]2(C)CCC[C@H](C)[C@H](O)[C@@H](C)C(=O)C(C)(C)[C@@H](O)CC(=O)O1 [Patupilone] (max concentration tested 1000 nM)
Conditions	drug sensitivity score
DERL-7 (IL-2 2.5 ng/mL) [4]	31.1
IMC-1 (IL-2 20 ng/mL) [10]	30.1
KAI3 (IL-2 2.5 ng/mL) [11]	16.4
KHYG-1 (IL-2 2.5 ng/mL) [12]	21.9
NK-92 (IL-2 2.5 ng/mL) [3]	26.2
NK-YS (IL-2 2.5 ng/mL) [8]	17
NKL (IL-2 2.5 ng/mL) [1]	21.7
SNK-6 (IL-2 2.5 ng/mL) [9]	24.3
YT (IL-2 2.5 ng/mL) [7]	24.7
[2]	0
[5]	0.55
[6]	0.14
[13]	0
[14]	17.1

percent inhibition of viability [%]
Conditions	0.1 nM	1 nM	10 nM	100 nM	1000 nM
DERL-7 (IL-2 2.5 ng/mL) [18]	-4.98	5.91	98.8	99.6	99.2
IMC-1 (IL-2 20 ng/mL) [24]	-0.59	0.29	97	99.9	99.2
KAI3 (IL-2 2.5 ng/mL) [25]	-13.1	-4.34	44.2	60.6	50.5
KHYG-1 (IL-2 2.5 ng/mL) [26]	-3.34	-8.41	25.7	104	102
NK-92 (IL-2 2.5 ng/mL) [17]	-21.3	-3.29	72.4	99.8	97.7
NK-YS (IL-2 2.5 ng/mL) [22]	-3.81	-3.75	28.9	71.3	69.9
NKL (IL-2 2.5 ng/mL) [15]	-9.24	-10.5	34.6	93.9	90.3
SNK-6 (IL-2 2.5 ng/mL) [23]	5.42	5.23	75.5	72.6	69.5
YT (IL-2 2.5 ng/mL) [21]	-3.08	-3.77	59.4	97.9	96.7
[16]	2.42	-5.69	2.84	6.87	6.04
[19]	-18.5	-28.5	6.09	7.49	15.2
[20]	-9.75	-4.17	10.3	5.4	6.51
[27]	-13	-7.53	0.9	3.45	6.6
[28]	-5.25	-3.64	53.5	57.1	55.8

N[C@@H]1CCCN(c2c(/C=C3\SC(=O)NC3=O)cccc2-c2ccccc2)C1 [AZD1208] (max concentration tested 10000 nM)
Conditions	drug sensitivity score
DERL-7 (IL-2 2.5 ng/mL) [4]	9.28
IMC-1 (IL-2 20 ng/mL) [10]	0
KAI3 (IL-2 2.5 ng/mL) [11]	5.48
KHYG-1 (IL-2 2.5 ng/mL) [12]	1.82
NK-92 (IL-2 2.5 ng/mL) [3]	0
NK-YS (IL-2 2.5 ng/mL) [8]	2.84
NKL (IL-2 2.5 ng/mL) [1]	7.1
SNK-6 (IL-2 2.5 ng/mL) [9]	0.26
YT (IL-2 2.5 ng/mL) [7]	0
[2]	1.86
[5]	6.52
[6]	3.28
[13]	0.17
[14]	5.29

percent inhibition of viability [%]
Conditions	1 nM	10 nM	100 nM	1000 nM	10000 nM
DERL-7 (IL-2 2.5 ng/mL) [18]	1.77	2.67	16.4	40.2	56.5
IMC-1 (IL-2 20 ng/mL) [24]	-4.38	-1.65	-10.7	-5.11	-8.15
KAI3 (IL-2 2.5 ng/mL) [25]	-0.84	0.89	7.33	28.1	34.3
KHYG-1 (IL-2 2.5 ng/mL) [26]	-4.34	-1.4	1.04	10.7	23.3
NK-92 (IL-2 2.5 ng/mL) [17]	-9.08	-8.5	-4.31	0.29	9
NK-YS (IL-2 2.5 ng/mL) [22]	-4.63	0.2	2.23	14.4	31.6
NKL (IL-2 2.5 ng/mL) [15]	-10.7	-16.5	4.37	35.7	49.5
SNK-6 (IL-2 2.5 ng/mL) [23]	-0.39	4.45	-2.55	5.71	12
YT (IL-2 2.5 ng/mL) [21]	-7.46	-4.31	-0.8	3.09	7.52
[16]	-5.92	-0.84	8.9	12.8	19.5
[19]	-10.1	0.65	23.9	23.6	23
[20]	-8.45	-3.78	9.24	17.3	18.6
[27]	-9.02	-6.59	-2.09	5.05	11.5
[28]	-4.31	-0.72	10.2	26	28.9
